Test system: spliced XBP1
Assay: Spliced XBP1 mRNA measurement test (RT-PCR, tunicamycin-induced ER stress in MCF-7 cells)
Type: cell-based
Conditions: Homo sapiens, MCF7, compound pre-treated for 1 hour, then 2 µg/mL tunicamycin for 6 or 24 hours, spliced XBP1 corrected by total XBP1
Protocol: With respect to these synthetic compounds, reverse transcription polymerase chain reaction (RT-PCR) experiments were conducted on MCF-7 cancer cells to confirm the effect thereof on the mRNA and protein amounts of spliced XBP1, which is the target of IRE endonuclease. A reverse transcription polymerase chain reaction is a test method in which RNA is extracted from cells, reverse transcriptase is used to make cDNA, and relative mRNA expression level is measured through a polymerase chain reaction.
Briefly, MCF-7 cells were seeded in a 12-well plate and cultured in an incubator including 5% CO2 for one day. On the next day, compounds, which were 10-fold serially diluted from 10,000 nM, were pre-treated for 1 hour, and then, treated with 2 µg/mL tunicamycin for 6 or 24 hours to induce endoplasmic reticulum stress, followed by cell lysis to obtain RNA. RNA was subjected to the procedure of RNeasy Kits (Qiagen, 74106), and 5 µg of RNA sample was dissolved in a sample including reverse transcriptase and dNTP, and reverse transcription reaction was performed with a thermal cycler. The amount of mRNA of each of spliced XBP1 and total XBP1 was measured by a polymerase chain reaction through real time PCR by mixing each cDNA sample with a PCR reaction mixture including a primer pair capable of binding specifically to each target and SYBR green dye. The expression level of spliced XBP1 was corrected by the total expression level of XBP1, and the relative expression levels of spliced XBP1 between samples were compared and analyzed.

IC50: 100 to 200 nM
Compound: Cc1c(CC(=O)N2CCC(C)(C)C2)c(=O)oc2c(C=O)c(O)c3c(c12)CCCO3 [Example 12, 2-(2-(3,3-dimethylpyrrolidin-1-yl)-2-oxoethyl)-6-hydroxy-1-methyl-3-oxo-3,8,9,10-tetrahydropyrano[3,2-f]chromene-5-carbaldehyde]

— patent EP4578861A1, “NOVEL TRICYCLIC HETEROCYCLIC CARBALDEHYDE COMPOUND AND PHARMACEUTICAL COMPOSITION, CONTAINING SAME, FOR IRE1ALPHA INHIBITION” (Hanmi Pharm. Co., Ltd., priority 2022, dated 2024)
